The text below walks through data of patent US10045983B2, “Heteroaryl pyridone and aza-pyrodine compounds” (Genentech, Inc., priority 2011, dated 2018).

A short description of this assay: CD69 Whole Blood Assay (CD69 Hu Blood FACS). The assay is classed as cell-based, human. As to conditions: Lymphocyte; human whole blood, anti-IgM activated B lymphocytes, FACS; IC70; Table 2 (unit inferred); read-out: CD69 Hu Blood FACS (IC70). Put shortly:
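Human whole blood stimulated by crosslinking surface IgM with goat F(ab′)2 anti-human IgM; inhibition of CD69 expression on B lymphocytes measured by flow cytometry.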
What is called IC70 is the point of the concentration-response curve where the effect stands at 70%. Consider `Cn1cc(-c2ccnc(N3CCn4c(cc5c4CC(C)(C)C5)C3=O)c2CO)cc(Nc2nc3c(s2)COCC3)c1=O` [Example 214, 3-[4-[5-(6,7-dihydro-4H-pyrano[4,3-d]thiazol-2-ylamino)-1-methyl-6-oxo-3-pyridyl]-3-(hydroxymethyl)-2-pyridyl]-7,7-dimethyl-1,2,6,8-tetrahydrocyclopenta[3,4]pyrrolo[3,5-b]pyrazin-4-one], for which the IC70 worked out at 124 nM.

For `Cc1nccc(Nc2cc(-c3cncc(N4CCn5c(cc6c5CC(C)(C)C6)C4=O)c3CO)cn(C)c2=O)n1` [Example 215, 3-[4-(hydroxymethyl)-5-[1-methyl-5-[(2-methylpyrimidin-4-yl)amino]-6-oxo-3-pyridyl]-3-pyridyl]-7,7-dimethyl-1,2,6,8-tetrahydrocyclopenta[3,4]pyrrolo[3,5-b]pyrazin-4-one], the IC70 was 457 nM.

As to `CN1CCc2nc(Nc3cc(-c4ccnc(-n5ncc6c7c(sc6c5=O)CCCC7)c4CO)cn(C)c3=O)sc2C1` [Example 216, 3-[3-(hydroxymethyl)-4-[1-methyl-5-[(5-methyl-6,7-dihydro-4H-thiazolo[5,4-c]pyridin-2-yl)amino]-6-oxo-3-pyridyl]-2-pyridyl]-6,7,8,9-tetrahydrobenzothiopheno[2,3-d]pyridazin-4-one], the IC70 was found to be 357 nM.

Turning to `Cn1cc(-c2ccnc(N3CCn4c(cc5c4CCCC5)C3=O)c2CO)cc(Nc2ccc3[nH]cnc3n2)c1=O` [Example 217, 2-[3-(hydroxymethyl)-4-[5-(1H-imidazo[4,5-b]pyridin-5-ylamino)-1-methyl-6-oxo-3-pyridyl]-2-pyridyl]-3,4,6,7,8,9-hexahydropyrazino[1,2-a]indol-1-one], the IC70 was determined as 2900 nM.

For the compound `Cc1cc(Nc2cc(-c3ccnc(N4CCn5c(cc6c5CC(C)(C)C6)C4=O)c3CO)cn(C)c2=O)nn1C` [Example 218, 3-[4-[5-[(1,5-dimethylpyrazol-3-yl)amino]-1-methyl-6-oxo-3-pyridyl]-3-(hydroxymethyl)-2-pyridyl]-7,7-dimethyl-1,2,6,8-tetrahydrocyclopenta[3,4]pyrrolo[3,5-b]pyrazin-4-one], the IC70 was found to be 74.1 nM.

For the compound `Cn1cc(-c2ccnc(N3CCn4c(cc5c4CC(C)(C)C5)C3=O)c2CO)nc(Nc2cccc(N)c2)c1=O` [Example 219, 3-[4-[6-(3-aminoanilino)-4-methyl-5-oxo-pyrazin-2-yl]-3-(hydroxymethyl)-2-pyridyl]-7,7-dimethyl-1,2,6,8-tetrahydrocyclopenta[3,4]pyrrolo[3,5-b]pyrazin-4-one], the IC70 was determined as 204 nM.

With `C[C@H]1CN(C2COC2)CCN1c1ccc(Nc2cc(-c3ccnc(N4CCn5c(cc6c5CCCC6)C4)c3CO)cn(C)c2=O)nc1` [Example 220, 5-[2-(3,4,6,7,8,9-hexahydro-1H-pyrazino[1,2-a]indol-2-yl)-3-(hydroxymethyl)-4-pyridyl]-1-methyl-3-[[5-[(2S)-2-methyl-4-(oxetan-3-yl)piperazin-1-yl]-2-pyridyl]amino]pyridin-2-one], the IC70 amounted to 1600 nM.

In the case of `Cn1cc(-c2ccnc(N3CCn4c(cc5c4CC(C)(C)C5)C3=O)c2CO)cc(Nc2cccc(N)n2)c1=O` [Example 221, 3-[4-[5-[(6-amino-2-pyridyl)amino]-1-methyl-6-oxo-3-pyridyl]-3-(hydroxymethyl)-2-pyridyl]-7,7-dimethyl-1,2,6,8-tetrahydrocyclopenta[3,4]pyrrolo[3,5-b]pyrazin-4-one], the IC70 was 121 nM.

Consider `Cc1nccc(Nc2cc(-c3ccnc(N4CCn5c(cc6c5CC(C)(C)C6)C4=O)c3CO)c[nH]c2=O)n1` [Example 222, 3-[3-(hydroxymethyl)-4-[5-[(2-methylpyrimidin-4-yl)amino]-6-oxo-1H-pyridin-3-yl]-2-pyridyl]-7,7-dimethyl-1,2,6,8-tetrahydrocyclopenta[3,4]pyrrolo[3,5-b]pyrazin-4-one], for which the IC70 amounted to 178 nM.

Regarding `CN1CCc2nc(Nc3cc(-c4ccnc(N5CCn6c7c(c(F)c6C5=O)CCCC7)c4CO)cn(C)c3=O)sc2C1` [Example 223, 10-fluoro-2-[3-(hydroxymethyl)-4-[1-methyl-5-[(5-methyl-6,7-dihydro-4H-thiazolo[5,4-c]pyridin-2-yl)amino]-6-oxo-3-pyridyl]-2-pyridyl]-3,4,6,7,8,9-hexahydropyrazino[1,2-a]indol-1-one], the IC70 was 430 nM.

Consider `C[C@H]1CN(C2COC2)CCN1c1ccc(Nc2cc(-c3ccnc(N4CCn5c(cc6c5CC(C)(C)C6)C4=O)c3CO)nn(C)c2=O)nc1` [Example 224, 3-[3-(hydroxymethyl)-4-[1-methyl-5-[[5-[(2S)-2-methyl-4-(oxetan-3-yl)piperazin-1-yl]-2-pyridyl]amino]-6-oxo-pyridazin-3-yl]-2-pyridyl]-7,7-dimethyl-1,2,6,8-tetrahydrocyclopenta[3,4]pyrrolo[3,5-b]pyrazin-4-one], for which the IC70 stood at 30.7 nM.

Take `Cc1nccc(Nc2cc(-c3ccnc(N4CCn5c(cc6c5CC(C)(C)C6)C4=O)c3CO)nn(C)c2=O)n1` [Example 225, 3-[3-(hydroxymethyl)-4-[1-methyl-5-[(2-methylpyrimidin-4-yl)amino]-6-oxo-pyridazin-3-yl]-2-pyridyl]-7,7-dimethyl-1,2,6,8-tetrahydrocyclopenta[3,4]pyrrolo[3,5-b]pyrazin-4-one]: the IC70 amounted to 766 nM.

For `Cn1nc(-c2ccnc(N3CCn4c(cc5c4CC(C)(C)C5)C3=O)c2CO)cc(Nc2ccc(C(=O)N3CCOCC3)cn2)c1=O` [Example 226, 3-[3-(hydroxymethyl)-4-[1-methyl-5-[[5-(morpholine-4-carbonyl)-2-pyridyl]amino]-6-oxo-pyridazin-3-yl]-2-pyridyl]-7,7-dimethyl-1,2,6,8-tetrahydrocyclopenta[3,4]pyrrolo[3,5-b]pyrazin-4-one], the IC70 worked out at 117 nM.

As for `Cn1nc(-c2ccnc(N3CCn4c(cc5c4CCCC5)C3=O)c2CO)cc(Nc2ccc(C(=O)N3CCOCC3)cn2)c1=O` [Example 227, 2-[3-(hydroxymethyl)-4-[1-methyl-5-[[5-(morpholine-4-carbonyl)-2-pyridyl]amino]-6-oxo-pyridazin-3-yl]-2-pyridyl]-3,4,6,7,8,9-hexahydropyrazino[1,2-a]indol-1-one], the IC70 is 730 nM.

Turning to `C[C@H]1CN(C2COC2)CCN1c1cnc(Nc2cc(-c3ccnc(N4CCn5c(cc6c5CCCC6)C4=O)c3CO)cn(C)c2=O)cn1` [Example 228, 2-[3-(hydroxymethyl)-4-[1-methyl-5-[[5-[(2S)-2-methyl-4-(oxetan-3-yl)piperazin-1-yl]pyrazin-2-yl]amino]-6-oxo-3-pyridyl]-2-pyridyl]-3,4,6,7,8,9-hexahydropyrazino[1,2-a]indol-1-one], the IC70 was found to be 369 nM.

Consider `CCc1nccc(Nc2cc(-c3ccnc(N4CCn5c(cc6c5CC(C)(C)C6)C4=O)c3CO)cn(C)c2=O)n1` [Example 229, 3-[4-[5-[(2-ethylpyrimidin-4-yl)amino]-1-methyl-6-oxo-3-pyridyl]-3-(hydroxymethyl)-2-pyridyl]-7,7-dimethyl-1,2,6,8-tetrahydrocyclopenta[3,4]pyrrolo[3,5-b]pyrazin-4-one], for which the IC70 is 583 nM.

Turning to `C[C@H]1CN(C2COC2)CCN1c1cnc(Nc2cc(-c3ccnc(-n4ncc5c6c(sc5c4=O)CCCC6)c3CO)cn(C)c2=O)cn1` [Example 230, 3-[3-(hydroxymethyl)-4-[1-methyl-5-[[5-[(2S)-2-methyl-4-(oxetan-3-yl)piperazin-1-yl]pyrazin-2-yl]amino]-6-oxo-3-pyridyl]-2-pyridyl]-6,7,8,9-tetrahydrobenzothiopheno[2,3-d]pyridazin-4-one], the IC70 stood at 179 nM.

As for `C[C@H]1CN(C2COC2)CCN1c1ccc(Nc2cc(-c3ccnc(N4CCn5c6c(c(F)c5C4=O)CCCC6)c3CO)nn(C)c2=O)nc1` [Example 231, 10-fluoro-2-[3-(hydroxymethyl)-4-[1-methyl-5-[[5-[(2S)-2-methyl-4-(oxetan-3-yl)piperazin-1-yl]-2-pyridyl]amino]-6-oxo-pyridazin-3-yl]-2-pyridyl]-3,4,6,7,8,9-hexahydropyrazino[1,2-a]indol-1-one], the IC70 turned out to be 62.4 nM.

For the compound `CN1CCC(c2ccc(Nc3cc(-c4ccnc(N5CCn6c(cc7c6CCCC7)C5=O)c4CO)cn(C)c3=O)nc2)CC1` [Example 232, 2-[3-(hydroxymethyl)-4-[1-methyl-5-[[5-(1-methyl-4-piperidyl)-2-pyridyl]amino]-6-oxo-3-pyridyl]-2-pyridyl]-3,4,6,7,8,9-hexahydropyrazino[1,2-a]indol-1-one], the IC70 was determined as 51.8 nM.

`Cn1cc(-c2ccnc(N3CCn4c(cc5c4CC(C)(C)C5)C3=O)c2CO)cc(Nc2nc3c(s2)CNCC3)c1=O` [Example 233, 3-[3-(hydroxymethyl)-4-[1-methyl-6-oxo-5-(4,5,6,7-tetrahydrothiazolo[5,4-c]pyridin-2-ylamino)-3-pyridyl]-2-pyridyl]-7,7-dimethyl-1,2,6,8-tetrahydrocyclopenta[3,4]pyrrolo[3,5-b]pyrazin-4-one]: the IC70 turned out to be 65.7 nM.

For the compound `CC(=O)N1CCc2nc(Nc3cc(-c4ccnc(N5CCn6c7c(c(F)c6C5=O)CCCC7)c4CO)cn(C)c3=O)sc2C1` [Example 234, 2-[4-[5-[(5-acetyl-6,7-dihydro-4H-thiazolo[5,4-c]pyridin-2-yl)amino]-1-methyl-6-oxo-3-pyridyl]-3-(hydroxymethyl)-2-pyridyl]-10-fluoro-3,4,6,7,8,9-hexahydropyrazino[1,2-a]indol-1-one], the IC70 is 183 nM.

For `C[C@H]1CN(C2COC2)CCN1c1cnc(Nc2cc(-c3ccnc(N4CCn5c(cc6c5CC(C)(C)C6)C4=O)c3CO)cn(C)c2=O)cn1` [Example 235, 3-[3-(hydroxymethyl)-4-[1-methyl-5-[[5-[(2S)-2-methyl-4-(oxetan-3-yl)piperazin-1-yl]pyrazin-2-yl]amino]-6-oxo-3-pyridyl]-2-pyridyl]-7,7-dimethyl-1,2,6,8-tetrahydrocyclopenta[3,4]pyrrolo[3,5-b]pyrazin-4-one], the IC70 is 112 nM.

With `CN1CCC(c2ccc(Nc3cc(-c4ccnc(N5CCn6c(cc7c6CC(C)(C)C7)C5=O)c4CO)cn(C)c3=O)nc2)CC1` [Example 236, 3-[3-(hydroxymethyl)-4-[1-methyl-5-[[5-(1-methyl-4-piperidyl)-2-pyridyl]amino]-6-oxo-3-pyridyl]-2-pyridyl]-7,7-dimethyl-1,2,6,8-tetrahydrocyclopenta[3,4]pyrrolo[3,5-b]pyrazin-4-one], the IC70 was 33.6 nM.
